{"source": "patent US20070225213A1", "about": "“Nucleic acid carriers for delivery of therapeutic agents” (priority 2006, published 2007)", "key": {"[1]": {"test_system": "human MCF-7 cells", "assay": "Visually scored toxicity of NAC-MTN / NAC-DOX at fixed loading (Example 3)", "type": "cell-based", "settings": "5.6 ug/ml final drug; 5.1% drug loading; 16 hour incubation", "method": "Toxicity of NAC-MTN or NAC-DOX, at 50, 16.9, 5.6, and 1.9 ug/ml final drug concentration and 5.1 % drug loading in human MCF-7 cells. Sample A: 15 mg of HSDNA (EX031804A) was combined with 0.76 mg MTN(mw 517.4) or (sample B) 0.76 mg DOX (mw 579.99) to give 152 ug/ml final drug and 5.1% loading in 5 ml final vol. Samples C, D were MTN, or DOX only controls at equivalent final [drug] without HSDNA. Sample E was HSDNA, no drug and sample F was H2O only. MCF-7 cells were trypsinized and plated out previously. Triplicate samples were diluted 0.1 ml in 0.2 ml 1× media to give 3× fold serial dilution in 0.2 ml final. After 16 hour incubation the cells were visually inspected for signs of toxicity. Toxicity was scored as the following: 50%=one half all cells rounded, un-adhered or crenated."}, "[2]": {"test_system": "COS7", "assay": "Toxicity of NAC-MTN vs CD-MTN and MTN, MTT (Example 9, EX042105)", "type": "cell-based, green monkey", "method": "FIG. 4. […] The relative toxicity of NAC-MTN was compared with MTN and CD-MTN in four cell lines, MCF7(breast cancer), COS7green monkey kidney (SV40 transformed), 3T3 (mouse fibroblast), and BHK21(hamster kidney). Cells were treated with identical amounts of MTN formulated as either NAC-MTN, MTN only, or poly-beta-cyclodextrin-sulfylbutylether(CD-MTN). After an incubation period, cell viability was assayed with MTT assay. The differences in toxicity between NAC-MTN and MTN or NAC-MTN and CD-MTN are shown as % difference. Greater percentage difference correlates to more reduction in relative NAC-MTN toxicity.\nMCF7, COS7, 3T3, and BHK21 cells were plated out in duplicate rows of equivalent cell density in 100ul final volume. Initial cell densities were 2000 cells/well.\nPreparing NAC-MTN, CD-MTN, and MTN only. Combined 180 ul of 0.05 mg/ml MTN with […] 0.1 mg/ml herring sperm genomic DNA (HSGDNA, Promega), 1500 ul of 2× DMEM media containing 20% FBS to give 3.0 ml final volume and 12% final drug loading in the dsDNA. For MTN only, 180 ul of MTN was combined with 1320 ul H2O and 1500 ul 2× DMEM. […]\nAspirated media in plate and replaced with 50 ul of 0.5 mg/ml MTT in 1× media, incubated 3 hours, aspirated, air dried 5 min and dissolved in 100 ul of isopropyl, read OD at A570. […]"}, "[3]": {"test_system": "MCF7", "assay": "Effect of plating time on uptake of NAC-MTN and MTN, fluorescence (Example 11)", "type": "cell-based, human", "method": "(§1) The effect of plating time on the differential rates of uptake between NAC-MTN and MTN were assayed in cells treated <1 hour and 24 hours after plating.\n(§2) On day 1, MCF7, COS7, 3T3, and BHK21 cells were plated out in a standard tissue culture plate. After incubation of 20 minutes samples were added to cells in rows A, C, E, and G. Cells were incubated at 37C in a standard atmosphere of 5%CO2.\n(§3) On day 2, samples were added to rows D, F, and H and the fluorescence was obtained EX620/EM680 S=80. Samples were removed from A,C,E and G, replaced with media and fluorescence read again. On day 2 observed significant drug toxicity in cells of rows A,C, E, G. Sample addition was postponed in row B since MCF7 were not yet confluent.\n(§4) On day 3, added samples to cells in row B containing confluent MCF7's, removed samples from rows D, F, and H replaced with media and read fluorescence.\n(§5) Fluorescence data from cells taken after removal of media was used to quantitate total MTN retained in the cells. Fluorescence data were converted to mg/ml MTN using a standard curve prepared with free MTN or NAC-MTN.\n(§6) The percentage difference in fluorescence between cells treated with NAC-MTN or MTN alone was used to compare relative drug uptake.\n(§7) The MTN fluorescence ratios were obtained by dividing MTN fluorescence of cells incubated for 24 hours by fluorescence of cells incubated 30 minutes. […] The uptake in BHK21 was roughly equivalent for NAC-MTN regardless of plate adherence, however it should be noted that BHK21 adhere very rapidly to the plate.\n(§8) Fluorescence data were converted to micromolar drug concentrations (uM MTN) using a standard curve for either nucleic acid bound or unbound drug, and drug uptake ratios were obtained by dividing the t(24 hour)/t(30 min.). The ratios of absolute drug concentration per well show more dramatic differences in uptake as shown below."}, "[4]": {"test_system": "BHK21", "assay": "Effect of plating time on uptake of NAC-MTN and MTN, fluorescence (Example 11)", "type": "cell-based, hamster", "method": "as §1, §2, §3, §4, §5, §6, §7, §8"}, "[5]": {"settings": "cells treated 24 hour after plating"}, "[6]": {"settings": "cells treated <1 hour after plating"}, "[7]": {"settings": "from standard curve for bound or unbound drug"}}, "data": [{"smiles": "O=C1c2c(O)ccc(O)c2C(=O)c2c(NCCNCCO)ccc(NCCNCCO)c21", "note": "[MTN, mitoxantrone]", "values": [{"measurement": "Toxicity (visual score)", "setting": "[1]", "result": 90, "unit": "%"}, {"measurement": "% tox. relative to media only", "setting": "[2]; 2 uM final MTN, MTT 48 hours after adding samples", "result": 56.65, "unit": "%"}, {"measurement": "toxic effect", "setting": "[2]; after 24 hours, 2 uM MTN", "result": "no toxic effect"}, {"measurement": "MTN FLUOR Ratio of t(24)/t(<1)", "setting": "[3]", "result": 0.75}, {"measurement": "FLUOR (MTN fluorescence in cells)", "setting": "[3]; [5]", "result": 18819}, {"measurement": "FLUOR (MTN fluorescence in cells)", "setting": "[3]; [6]", "result": 16651}, {"measurement": "Ratio uM MTN of t(24)/t(<1)", "setting": "[3]; [7]", "result": 1.2}, {"measurement": "MTN FLUOR Ratio of t(24)/t(<1)", "setting": "[4]", "result": 0.73}, {"measurement": "FLUOR (MTN fluorescence in cells)", "setting": "[4]; [5]", "result": 10746}, {"measurement": "FLUOR (MTN fluorescence in cells)", "setting": "[4]; [6]", "result": 9557}, {"measurement": "Ratio uM MTN of t(24)/t(<1)", "setting": "[4]; [7]", "result": 1.2}]}]}
